This note sets out measurements from US3960834A, “Method for preparing 3-(methylmercaptol) propylaminobleomycin” (priority 1973, dated 1976).

Data set [1] relates to Mycobacterium smegmatis 607. Nature of the data set: antimicrobial activity against Mycobacterium smegmatis 607. The data set is classed as cell-based.
In data set [2] the test system is ICR mouse bearing cancer. How it is done: Mice of ICR/JCL strain (male 5 weeks old, five for one group) are inoculated with Ehrlich ascites carcinoma cells in a dose of 2 millions/mouse.
LD50 is calculated by Behrens-Karber's method from the group poisoned at high dose levels.

Data set [3] in a line: solubility. The class given is physicochemical.
Data set [4] concerns Ehrlich ascites carcinoma cells. As to conditions: for Mean surviving days: intraperitoneally once a day for 10 days, observed up to 50 days; for ED50: Table 3, maximum dose level at which they survive 100 to 200% of the survival days for the control; for LD50 /ED50 = Index: mouse, in vivo, ip.
Data set [5] has the same test system. Description: animal or person. As to conditions: Mus musculus, ip.
[6] abbreviates: ICR mouse bearing cancer, daily intraperitoneal administration for 10 days.
Setting [7] is: Table 3, Behrens-Karber's method, from the group poisoned at high dose levels.

Like-named read-outs stand apart in the source and are kept apart here.

Take `CSCCCNC(=O)c1csc(-c2csc(CCNC(=O)[C@@H](NC(=O)[C@@H](C)[C@H](O)[C@@H](C)NC(=O)[C@@H](NC(=O)c3nc([C@H](CC(N)=O)NC[C@H](N)C(N)=O)nc(N)c3C)[C@@H](O[C@@H]3O[C@@H](CO)[C@@H](O)[C@H](O)[C@@H]3O[C@H]3O[C@H](CO)[C@@H](O)[C@H](OC(N)=O)[C@@H]3O)c3cnc[nH]3)[C@@H](C)O)n2)n1` [Demethylbleomycin A2, 3-(methylmercapto)propylaminobleomycin]: in data set [1], the “antimicrobial activity (potency)” value is recorded as 2,458 mcg potency/mg. The LD50 in data set [2] (setting [6]) stood at 22.5 mg/kg; in data set [2] (setting [7]) it was 18.0. In addition, in data set [2] (from LD50, ICR mouse bearing cancer, daily intraperitoneal for 10 days), the “toxicity compared with bleomycin A2” value was “decreased to about half as much”. Moreover, the “solubility in organic solvents” value in data set [3] (ethanol, propanol, butanol, ethyl acetate, ether, acetone, petroleum ether, benzene, and toluene) is recorded as “insoluble”. Also, the “solubility in water and methanol” value in data set [3] (water and methanol) is listed as “soluble”. Further, the Mean surviving days in data set [4] (0.19 mg/kg) was determined as 20.2 days; in data set [4] (0.39 mg/kg), 24.0 days; in data set [4] (0.78 mg/kg) it was 31.2 days; in data set [4] (1.56 mg/kg), 28.6 days; in data set [4] (3.12 mg/kg), 34.6 days; in data set [4] (6.25 mg/kg), 49 days. Besides, the results for the Mean surviving days in data set [4] (12.5 mg/kg) and in data set [4] (25 mg/kg) were 40.5 days and 29.0 days, respectively. This compound also gave an ED50 in data set [4] of 0.78. For the same compound, the “LD50 /ED50 = Index” value in data set [4] was found to be 23.
Consider “3-(S,S-dimethylmercapto)propylaminobleomycin [Bleomycin A2, reference compound]”, for which the “antimicrobial activity (potency)” value in data set [1] is listed as 1000 mcg potency/mg. Further, the LD50 is recorded as 12.5 mg/kg in data set [2] (setting [6]) and 9.4 in data set [2] (setting [7]). Moreover, the Mean surviving days in data set [4] (0.19 mg/kg) is 13.6 days; in data set [4] (0.39 mg/kg), 15.4 days; in data set [4] (0.78 mg/kg), 17.2 days; in data set [4] (1.56 mg/kg), more than 33 days; in data set [4] (3.12 mg/kg) it was more than 36 days; in data set [4] (6.25 mg/kg), more than 28.4 days. Besides, the values for the Mean surviving days in data set [4] (12.5 mg/kg) and in data set [4] (25 mg/kg) were 25 days and 10.8 days, respectively. The ED50 in data set [4] came out at 0.78. The “LD50 /ED50 = Index” value in data set [4] came out at 12.
As for `CO[C@@]12[C@H](COC(N)=O)C3=C(C(=O)C(C)=C(N)C3=O)N1C[C@@H]1N[C@@H]12` [Mitomycin C], the ED50 in data set [5] turned out to be 0.39 mg/kg.
